# What was measured:
# Type in all cases: cell-based
# Conditions in all cases: alone
# Alternaria alternata = assay: in vitro-Test with Alternaria alternata
# Botrytis cinerea = assay: in vitro-Test with Botrytis cinerea
# Colletotrichum coccodes = assay: in vitro-Test with Colletotrichum coccodes
# Cordana musae = assay: in vitro-Test with Cordana musae
# Diaporthe citri = assay: in vitro-Test with Diaporthe citri
# Fusarium culmorum = assay: in vitro-Test with Fusarium culmorum
# Description: Wells of 96-well microtiter plates are filled with 10 μl of a preparation of test compound or compound combination in methanol+emulsifier alkylaryl-polyglycol-ether. Thereafter, the solvent is evaporated in a hood. At the next step, into each well 100 μl of liquid potato dextrose medium is given, that has been amended with an appropriate concentration of spores or mycelium suspension of the test fungus.
# With the aid of a photometer the extinction in all wells is measured at the wavelength of 620 nm.
# The microtiter plates are incubated at 20° C. and 85% relative humidity. The inhibition of growth is determined again photometrically 3-5 days after the application. Efficacy is calculated in relation to the untreated control, 0% efficacy means fungal growth as high as in untreated control while 100% efficacy means no fungal growth is measured.
smiles,measurement,setting,value
"COC(=O)C(O)(Cn1cncn1)c1ccc(Oc2ccc(Cl)cc2)cc1Cl (centres unmarked) [(I-1), Methyl 2-[2-chloro-4-(4-chlorophenoxy)phenyl]-2-hydroxy-3-(1,2,4-triazol-1-yl)propanoate]",Efficacy %,Alternaria alternata; 0.02 ppm,3%
same,Efficacy %,Alternaria alternata; 0.1 ppm,0%
same,Efficacy %,Alternaria alternata; 0.5 ppm,18%
same,Efficacy %,Botrytis cinerea; 0.02 ppm,1%
same,Efficacy %,Botrytis cinerea; 0.1 ppm,0%
same,Efficacy %,Colletotrichum coccodes; 0.02 ppm,0%
same,Efficacy %,Colletotrichum coccodes; 0.1 ppm,0%
same,Efficacy %,Colletotrichum coccodes; 2.5 ppm,91%
same,Efficacy %,Cordana musae; 0.02 ppm,14%
same,Efficacy %,Cordana musae; 0.5 ppm,54%
same,Efficacy %,Cordana musae; 2.5 ppm,97%
same,Efficacy %,Diaporthe citri; 0.02 ppm,0%
same,Efficacy %,Diaporthe citri; 0.1 ppm,0%
same,Efficacy %,Diaporthe citri; 2.5 ppm,100%
same,Efficacy %,Fusarium culmorum; 2.5 ppm,25%
"CCC(=O)Oc1c(OC)ccnc1C(=O)N[C@@H](C)C(=O)O[C@@H](C)[C@@H](C)c1ccccc1C [(3.017) Metarylpicoxamid, metarylpicoxamid, reference compound]",Efficacy %,Alternaria alternata; 10 ppm,50%
same,Efficacy %,Botrytis cinerea; 0.8 ppm,0%
same,Efficacy %,Botrytis cinerea; 10 ppm,20%
same,Efficacy %,Colletotrichum coccodes; 0.08 ppm,19%
same,Efficacy %,Colletotrichum coccodes; 0.4 ppm,26%
same,Efficacy %,Cordana musae; 0.08 ppm,44%
same,Efficacy %,Diaporthe citri; 2 ppm,89%
same,Efficacy %,Diaporthe citri; 10 ppm,89%
same,Efficacy %,Fusarium culmorum; 0.08 ppm,10%
same,Efficacy %,Fusarium culmorum; 2 ppm,0%
same,Efficacy %,Fusarium culmorum; 10 ppm,4%
